Molecules are shown by their SMILES. Where only a bound is given, the exact number is not on record here.

IC50 and Emax data for nine molecules are collected here from patent US20260091026A1, “METHODS OF TREATING INFLAMMATORY DISEASES” (INTERLINE THERAPEUTICS, INC., priority 2023, published 2026).

Assay [1] relates to THP1-Dual cells, NF-κB pathway (SEAP). Nature of the assay: THP-1 Dual cell SEAP assay (L18-MDP stimulated). The format is cell-based. As to conditions: Homo sapiens, 10 ng/mL L18-MDP, 20-24 h, SEAP readout, read-out: IFNγ THP1 IC50. The method, boiled down: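 About 25,000 THP1-Dual cells per well were preincubated 30 min with serially diluted compound, then stimulated overnight (20-24 h, 37 °C) with 10 ng/mL L18-MDP (final). NF-κB-driven SEAP in supernatant was read with QUANTI-Blue at OD 620-655 nm after 2 h; % inhibition versus DMSO/L18-MDP wells was fitted by non-linear regression to give IC50.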

In a further assay the target is T1, RIPK2 (KD)/XIAP (BIR2) (Homo sapiens, UniProt O43353).
T1 construct: made in house; host or cells: baculovirus-infected Sf9 cells
Nature of the assay: RIPK2-XIAP binding competition PPI assay (TR-FRET). Conditions: for Emax: 50 nM of GSK583 = -100% activity, read-out: PPI Amax; for IC50: GST-RIPK2 / His-XIAP (BIR2)-avi, 120 min at 23° C. The method, boiled down: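 TR-FRET competition between GST-RIPK2 (aa 1-310, 1 nM) and His-XIAP BIR2-avi (aa 152-231, 25 nM), both Sf9-expressed, detected with anti-His-XL665 and anti-GST-Tb in Tris pH 7.5 buffer with MgCl2, DTT and vanadate. Incubation was 120 min at 23 °C; the 665/520 nm ratio was normalized to no inhibitor (0%) and 50 nM GSK583 (−100%).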

The target in assay [2] is T2, GST-RIPK2 fusion protein (human RIPK2 amino acids 1-310) (Homo sapiens, UniProt O43353).
T2 construct: made in house; host or cells: baculovirus-infected Sf9 cells
Kind of assay: RIPK2 binding competition assay (TR-FRET, Tracer 199). As to conditions: displacement of Tracer 199 (10 nM), 45 min at 22° C. The method, boiled down:
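GST-tagged human RIPK2 (aa 1-310, Sf9-expressed; 1 nM final) competed against Alexa647 Tracer 199 (10 nM) with Tb anti-GST antibody (0.5 nM) in Tris pH 7.5/MgCl2/DTT buffer, 45 min at 22 °C. Read-out was the 665/620 nm emission ratio, normalized to no-inhibitor (0%) and no-enzyme (−100%) controls.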
A general note: TR-FRET usually uses a lanthanide donor and a delayed reading to cut background.

T2 sequence (O43353 1-310): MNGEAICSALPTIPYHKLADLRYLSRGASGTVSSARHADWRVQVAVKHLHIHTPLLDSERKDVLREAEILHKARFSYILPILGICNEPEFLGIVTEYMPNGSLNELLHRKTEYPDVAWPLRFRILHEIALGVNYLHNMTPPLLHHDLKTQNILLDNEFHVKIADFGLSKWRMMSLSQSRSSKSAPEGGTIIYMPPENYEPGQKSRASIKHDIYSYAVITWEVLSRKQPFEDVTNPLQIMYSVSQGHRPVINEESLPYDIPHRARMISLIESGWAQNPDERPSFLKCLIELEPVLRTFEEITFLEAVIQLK
T1 sequence (O43353 1-310): as above

Consider `COc1cc2ncc(-n3cc(NC(=O)C4(F)CCC5(CC5)CC4)cn3)n2cc1S(=O)(=O)C(C)(C)C` [Example 174, N-(1-(6-(tert-butylsulfonyl)-7-methoxyimidazo[1,2-a]pyridin-3-yl)-1H-pyrazol-4-yl)-6-fluorospiro[2.5]octane-6-carboxamide], for which the 50% inhibitory concentration (IC50) was over 2500 nM in assay [1], over 1000 nM on RIPK2 (KD)/XIAP (BIR2) and 500 to 1000 nM in assay [2]. Besides, the Emax on RIPK2 (KD)/XIAP (BIR2) is at least 80%.

For the molecule `COc1cc2ncc(-n3cc(NC(=O)C4(C)CCCCC4)cn3)n2cc1S(=O)(=O)C(C)(C)C` [Example 175, N-(1-(6-(tert-butylsulfonyl)-7-methoxyimidazo[1,2-a]pyridin-3-yl)-1H-pyrazol-4-yl)-1-methylcyclohexane-1-carboxamide], the values for the IC50 (in assay [1]; at RIPK2 (KD)/XIAP (BIR2); in assay [2]) were over 2500 nM, over 1000 nM and over 1000 nM, respectively. The Emax on RIPK2 (KD)/XIAP (BIR2) was 55 to 80%.

With `COc1cc2ncc(-c3cc(NC(=O)C4(F)CCCCC4)n(C)n3)n2cc1S(=O)(=O)C(C)(C)C` [Example 176, N-(3-(6-(tert-butylsulfonyl)-7-methoxyimidazo[1,2-a]pyridin-3-yl)-1-methyl-1H-pyrazol-5-yl)-1-fluorocyclohexane-1-carboxamide], the figures for the IC50 (in assay [1]; at RIPK2 (KD)/XIAP (BIR2); in assay [2]) were 500 to 2500 nM, 100 to 1000 nM and under 200 nM, respectively. For the same molecule, the Emax at RIPK2 (KD)/XIAP (BIR2) is at least 80%.

`COc1cc2ncc(-n3cc(N4CCC5(CCCCC5)C4=O)cn3)n2cc1S(=O)(=O)C(C)(C)C` [Example 181, 2-(1-(6-(tert-butylsulfonyl)-7-methoxyimidazo[1,2-a]pyridin-3-yl)-1H-pyrazol-4-yl)-2-azaspiro[4.5]decan-1-one]: the IC50 in assay [1] was over 2500 nM; at RIPK2 (KD)/XIAP (BIR2), over 1000 nM; in assay [2], over 1000 nM. Further, the Emax on RIPK2 (KD)/XIAP (BIR2) is 30 to 55%.

Regarding `CN1CCC(Nc2cncc(-c3cc(NC(=O)Cc4ccccc4Cl)n(C)n3)c2)CC1` [Example 184, 2-(2-chlorophenyl)-N-(1-methyl-3-(5-((1-methylpiperidin-4-yl)amino)pyridin-3-yl)-1H-pyrazol-5-yl) acetamide], the half-maximal inhibitory concentration (IC50) is over 2500 nM in assay [1], 100 to 1000 nM on RIPK2 (KD)/XIAP (BIR2) and under 200 nM in assay [2]. For the same molecule, the Emax at RIPK2 (KD)/XIAP (BIR2) is at least 80%.

Regarding `COc1cc2ncc(-c3cc(NC(=O)Cc4ccccc4Cl)n(C)n3)n2cc1S(=O)(=O)C(C)(C)C` [Example 185, N-(3-(6-(tert-butylsulfonyl)-7-methoxyimidazo[1,2-a]pyridin-3-yl)-1-methyl-1H-pyrazol-5-yl)-2-(2-chlorophenyl)acetamide], the concentration for half-maximal inhibition (IC50) in assay [1] was 500 to 2500 nM; on RIPK2 (KD)/XIAP (BIR2), 10 to 100 nM; in assay [2], under 200 nM. Also, the Emax at RIPK2 (KD)/XIAP (BIR2) was at least 80%.

With `COc1cc2ncc(-c3cc(NC(=O)Cc4ccccc4Cl)n(C)n3)n2cc1C1(F)CCN(C)CC1` [Example 186, 2-(2-chlorophenyl)-N-(3-(6-(4-fluoro-1-methylpiperidin-4-yl)-7-methoxyimidazo[1,2-a]pyridin-3-yl)-1-methyl-1H-pyrazol-5-yl)acetamide], the IC50 in assay [1] was 500 to 2500 nM; at RIPK2 (KD)/XIAP (BIR2) it was 10 to 100 nM; in assay [2], under 200 nM. On RIPK2 (KD)/XIAP (BIR2), the Emax is at least 80%.

In the case of `COc1cc2ncc(-c3cc(NC(=O)C4(F)CCCCC4)n(CCO)n3)n2cc1S(=O)(=O)C(C)(C)C` [Example 193, N-(3-(6-(tert-butylsulfonyl)-7-methoxyimidazo[1,2-a]pyridin-3-yl)-1-(2-hydroxyethyl)-1H-pyrazol-5-yl)-1-fluorocyclohexane-1-carboxamide], the IC50 in assay [1] is over 2500 nM; at RIPK2 (KD)/XIAP (BIR2) it was 100 to 1000 nM; in assay [2], under 200 nM. Also, the Emax at RIPK2 (KD)/XIAP (BIR2) was at least 80%.

In the case of `COc1ccn2ncc(-c3cc(NC(=O)C4(F)CCCCC4)n(CCO)n3)c2n1` [compound 194], the figures for the half-inhibitory concentration (IC50) (in assay [1]; at RIPK2 (KD)/XIAP (BIR2); in assay [2]) were over 2500 nM, over 1000 nM and over 1000 nM, respectively. Besides, the Emax on RIPK2 (KD)/XIAP (BIR2) is at most 30%.

What is called IC50 is the point on the concentration scale where inhibition reaches its midpoint.
